Assay results taken from patent US20180267021A1, “METHODS AND DEVICES FOR ASSESSING CELL PROPERTIES UNDER CONTROLLED GAS ENVIRONMENTS” (Carnegie Mellon University, priority 2014, published 2018).
Entries after “also recorded” stand apart in the source; their conditions may differ.

Columns and labels:
[1] = system: sickle RBCs; assay: Microfluidic hypoxia assay: anti-sickling effect of Aes-103 on sickle RBCs incubated in vitro; type: cell-based, human
Procedure: (§1) Cell sickling was measured using a double-layer device with a cell channel (5 μm high), a gas channel (100 μm high) and an in-between PDMS film 150 μm in thickness (FIG. 1A). The O2 concentration was controlled by exchanging gas flow in the channel through the PDMS membrane that is gas-permeable (33). […] Sickle RBCs typically form spiky edges and dark coarse texture due to intracellular HbS polymerization, the visual identification of which was enhanced by a band-pass filter (FIG. 1B). Thus the sickled cells were defined as those obviously distorted from their original shape and texture under Oxy state (O2 concentration 20%) to the DeOxy state (O2 concentration <5%). […] The delay time of cell unsickling was defined as the time elapsed between the initiation of reoxygenation (ReOxy) and the point when the RBC fully recovered its pre-sickle morphology in a visibly identifiable manner.
(§2) For the Aes-103 testing, blood samples from 3 on-HU and 3 off-HU patients were incubated with Aes-103 at different concentrations (0.5, 1, 2, and 5 mM) for one hour at 37° C. before the in vitro sickling test. […] The fractionation gradient was built up with four layers of 2.5 ml Optiprep-DPBS medium of densities of 1.081, 1.091, 1.100 and 1.111 g/ml, respectively. 1 ml blood sample was washed twice with Phosphate Buffered Saline (PBS) at 2000 rpm for 5 minutes at 21° C. and diluted into 70-80% hematocrit. […] The four fractions, Density 1 through Density 4 have mean densities of 1.086±0.005 g/ml, 1.095±0.005 g/ml, 1.105±0.005 g/ml, and >1.111 g/ml, respectively. Fractionated sickle RBCs were then suspended with RPMI-1640 containing 1% w/v Bovine Serum Albumin (BSA) (Sigma-Aldrich, St Louis, Mo.) and stored at 4° C. until shortly before use to avoid metabolic depletion.
(§3) As Ru(dpp)3C12 is water insoluble, it was dissolved in Acetone-RPMI (volume ratio of 1:2) at 0.8 mg/ml and injected into the cell channel. […] Short-term and long-term hypoxia conditions held the durations of DeOxy state (O2 concentration<5%) about 25 s and 220 s, respectively.

[2] = system: sickle RBCs; assay: Kinetics of cell sickling of density-fractionated sickle RBC populations, on-HU vs off-HU; type: cell-based, human
Description: In order to quantify the effects of cell density on the kinetics of cell sickling and unsickling, we categorized sickle RBCs into four populations with average cell densities of 1.086±0.005 g/ml (Density 1), 1.095±0.005 g/ml (Density 2), 1.105±0.005 g/ml (Density 3), and >1.111 g/ml (Density 4) for 20 SCD samples from 6 off-HU patients and 14 on-HU patients. The majority of sickle RBCs fell within Density 2 and Density 3 (FIG. 8A). We noticed a significant difference in sickling growth curve among different density populations of individual blood samples under both short-term and long-term DeOxy states (FIGS. 8B and C). Results of delay time of cell sickling and sickled fraction were examined along with cell density and the patient's HU status. Delay time of cell sickling decreased with cell density (FIG. 5A), which can be rationalized by the hydration state of the cells (39, 40).
as §2, §3

[3] = system: sickle RBCs; assay: Individual sickle RBC rheology through micro-gates under transient hypoxia, on-HU vs off-HU
[4] = system: sickle RBCs; assay: Kinetics of cell sickling and unsickling under transient hypoxia, patient samples on-HU vs off-HU; type: cell-based, human
Procedure: as §1
Kinetics of individual cell sickling and unsickling under transient hypoxia conditions was quantified by the delay time and the maximum sickled fraction on 25 SCD patient samples: 7 patients without HU therapy (off-HU) and 18 patients with HU therapy (on-HU) (see patient's HU status in Materials and Methods Text). Short-term and a long-term hypoxia conditions were created to simulate normal and retarded transit scenarios in microvasculature (FIGS. 2A-B). Representative cell sickling profiles upon changes in O2 concentration are shown (FIG. 2C). Compared to the relatively long sickling process (>100 s for sickled fraction rising from zero to a saturated, maximum level), the unsickling process after ReOxy was much faster (<20 s for sickled fraction reducing from the saturated level to zero), disregarding the small discrepancy in the DeOxy and ReOxy rates (<20 s). This observation applied to all patient sample.
as §2

Structure (SMILES) | change in cell sickling from baseline ([1]; 2 mM Aes-103 incubation, each patient sample) | maximum sickled fraction ([1]; 5 mM Aes-103, one hour at 37° C., hypoxia 2% O2, 3 on-HU and 3 off-HU patient samples) | sickled fraction of one patient sample ([1]; 5 mM Aes-103, one patient sample) | dependence of sickled fraction on Aes-103 concentration (anti-sickling effect) ([1]; Aes-103 0.5-5 mM, long-term hypoxia) | delay time for unsickling, on-HU vs off-HU ([2]; Densities 1 through 3, long-term DeOxy) | delay time of cell sickling with HU therapy, Densities 3 and 4 ([2]; Densities 3 and 4, p=0.01 and p=0.06) | mean delay time of cell sickling, on-HU vs off-HU cases ([2]; density-fractionated populations, short-term DeOxy, p<0.02) | sickled fraction with HU therapy ([2]; short-term hypoxia, particularly Densities 3 and 4 (p=0.01 and p=0.001)) | capillary obstruction ratio, on-HU vs off-HU ([3]; 7 on-HU and 7 off-HU patient samples, DeOxy state, p=0.04) | cell velocity, on-HU vs off-HU ([3]; individual RBCs through periodic micro-gates) | delay time of sickling, on-HU group compared with off-HU group ([4]; 5% sickled fraction, p<0.01) | delay time of cell sickling, six cases ([4]; 10% sickled fraction, six cases, suggesting beneficial effect of HU therapy) | influence of HU therapy on delay time of cell sickling to saturated sickled fraction ([4]; long-term DeOxy state, p<0.02) | delay time of cell unsickling, on-HU vs off-HU ([4]; long-term DeOxy state, p=0.24) | maximum sickled fraction ([4]; short-term DeOxy state (O2 <5% for 25 s), all on-HU samples, significantly lower than off-HU (p=0.03))
O=Cc1ccc(CO)o1 [Aes-103, 5-hydroxymethylfurfural] | significant decrease in cell sickling from its baseline | < 5% | nearly zero | strong correlation with the drug concentration; also recorded: decreased with drug concentration; also recorded: dosage-dependent manner | – | – | – | – | – | – | – | – | – | – | –
NC(=O)NO [HU, hydroxyurea] | – | – | – | – | did not vary significantly | marked extension | statistically higher | significantly suppressed | significantly lower | lower than those for the off-HU group | significantly longer | > 60 s | statistically significant | no significant difference | below 15%
